According to patent US12727600B2, “Staurosporine⋅emamectin benzoate suspending agent and preparation method and application thereof” (PLANT PROTECTION RESEARCH INSTITUTE OF GUANGDONG ACADEMY OF …, priority 2020, dated 2026):
Like-named read-outs stand apart in the source and are kept apart here.

Test system: second instar larvae of Spodoptera exigua
Experiment: Indoor toxicity by Potter spray method; co-toxicity coefficient method of Sun Y. P.
Type: in vivo
Conditions: median lethal concentration
Procedure: The method for determining the indoor toxicity of the pesticides involved in the present invention to the second instar larvae of Spodoptera exigua is as follows:
The test method is the Potter spray method: a Potter spray tower is used to spray the vegetable leaves on both sides with 1 mL of the amount of the pesticides treating the leaf on each side, and the sedimentation is performed for 30 seconds. There are 3 replicates for each treatment for 30 larvae (2nd instar larvae of Spodoptera exigua), and a treatment with the clean water is used as the control. The petri dish after sprayed is placed in a constant-temperature incubator (temperature being 25° C., relative humidity being 85%). The death of the testing pests is investigated and recorded after treatment for 24, 48, and 72 hours. During the treatment, the petri dish is kept moist, and fresh Cantonese cabbage leaves are added timely as pest's food.
The formula (1) is used to calculate the mortality of pests, the Abbott formula is used to calculate the corrected mortality, and EXCEL is used to analyze the virulence regression results. Formula (2) is the calculation formula of Abbott. Mortality (%)=Number of dead insects/Number of testing worms before experiment*100 (1) […]

Compound	LC50 (Spodoptera exigua, mass ratio Staurosporine:Emamectin benzoate, read-out: LC50) [µg/mL]	LC50 [µg/mL]
CN[C@@H]1C[C@H]2O[C@@](C)([C@@H]1OC)n1c3ccccc3c3c4c(c5c6ccccc6n2c5c31)C(=O)NC4 [10:0, Staurosporine]	40.3	–
Emamectin benzoate [0:10]	–	0.14
